In US20240325379A1, “LOW-DOSE NALTREXOL AND USES THEREOF” (AETHER THERAPEUTICS INC., priority 2021, published 2024):
Entries after “also recorded” stand apart in the source; their conditions may differ. Read-outs that look alike come from different tables or passages of the source.

How the values were obtained:
MOR [1] = target: T1, MOR (Homo sapiens, UniProt P35372); assay: MOR affinity (in vitro binding)
MOR [2] = assay: Antagonist potency when administered before morphine in mice; type: in vivo; conditions: for change of antagonist potency when given before morphine compared to the same time: ~2 h before morphine
MOR [3] = target: T1, MOR; assay: Neutral antagonism at MOR
Source text: (§1) The invention embodies usage of any of these compounds or derivatives or metabolites thereof.

MOR [4] = target: T1, MOR; conditions: in vivo
Source text: as §1

[5] = Oral bioavailability in rodents; conditions: in vivo
Experimental: In one embodiment, the dose of 6BN is from 0.001 to 0.25 mg. In another embodiment, the dose of 6BN is from 0.25 to 0.50 mg. In a further embodiment, the dose of 6BN is from 0.50 to 0.75 mg. In a still further embodiment, the dose of 6BN is from 0.75 to 1.0 mg. In a still another embodiment, the dose of 6BN is from 1.0 to 1.25 mg. In another embodiment, the dose of 6BN is from 1.25 to 1.5 mg. In a further embodiment, the dose of 6BN is from 1.5 to 1.75 mg. In a still further embodiment, the dose of 6BN is from 1.75 to 2.0 mg. In a still further embodiment, the dose of 6BN is from 2.0 to 3.0 mg. These projected dose ranges can be modified once clinical results with LD-6BN are available (for example oral bioavailability, estimated here to be ˜30% as observed in rodents.

[6] = Oral bioavailability in humans; conditions: human, in vivo
Source text: (§2) Additional preferred formulations include transdermal patch application and intranasal application (with partial direct access to the brain, bypassing the blood-brain-barrier). When combined with opioid analgesics in a co-formulation, LD-6BN can be delivered in the same formulation type for any of the opioid analgesics currently used clinically, including sustained release oral preparations. No dosage adjustments are needed.

[7] = Blood and brain levels of 6BN after s.c. doses (FIG. 3); type: in vivo, guinea pigs
Experimental: Therefore, when serving as an addiction modulator, LD-6BN interacts effectively with both peripheral and central opioid receptors. Its effect on reversing opioid induced hyperalgesia might at least in part occur by acting on MOR in peripheral nociceptor neurons (15), but reversal of opioid dependence is likely driven by a central effect. The level of MOR bound 6BN after an s.c. dose of 0.02 mg/kg is estimated to occupy ˜10% of MOR sites, assuring a gradual reversal of MOR-μ* to MOR-μ and MOR-μ^x, insufficient to interfere with opioid analgesia, or cause withdrawal in dependent subjects.
(§3) High potency in facilitating gradual conversion of the dependent state (elevated MOR-μ*) back to the resting and/or reserve MOR states. Following LD-6B dosing, only a low fractional receptor occupancy is sufficient to reverse the dependent state in a gradual dynamic fashion, further accounting for high potency as an addiction modulator. • 5. When designed to act as an antagonist (doses above the LD-6BN range), potency is expected to increase over time when administered before an opioid agonist, presumably via high MOR-μ* occupancy and thereby more rapid reversal of MOR-μ* back to its resting or reserve states. […] Morphinan analogues of 6BN tend to bind to all opioid receptors with varying potency and efficacy (patents (47)). […] Potency of potential addiction modulators should therefore be tested for binding and efficacy at MOR, DOR (delta), and KOR, to detect differences between them and anticipate potential variation in clinical outcomes.

[8] = target: kappa opioid receptors (KOR) (Homo sapiens, UniProt P41145); assay: Inverse agonist activity at KOR pretreated in vitro with KOR agonists; type: biochemical
Source text: as §3

MOR-μ* = assay: Prevention/reversal of opioid dependence in animal models (FIG. 1, methadone-treated animals); type: in vivo, guinea pig; conditions: low dose, no interference with opioid analgesia, no withdrawal
Source text: FIG. 1 provides data showing prevention of withdrawal behavior in methadone-treated animals.

Water solubility = type: physicochemical
Source text: as §2

MOR [9] = target: T1, MOR; conditions: 6β-naltrexol compared with naltrexone; cited from earlier work
[10] = test system: morphine induced slowing of bowel movements; conditions: cited from earlier work
[11] = test system: peripheral sensory neurons; conditions: after washing out the drugs, 6BN tested at 10 μM; cited from earlier work
peripheral MOR = conditions: methadone maintenance subjects, cited from earlier work
[12] = humans; cited from earlier work
MOR [13] = conditions: opioid detoxification/weaning with descending doses of buprenorphine; cited from earlier work

T1 sequence (P35372 whole entry): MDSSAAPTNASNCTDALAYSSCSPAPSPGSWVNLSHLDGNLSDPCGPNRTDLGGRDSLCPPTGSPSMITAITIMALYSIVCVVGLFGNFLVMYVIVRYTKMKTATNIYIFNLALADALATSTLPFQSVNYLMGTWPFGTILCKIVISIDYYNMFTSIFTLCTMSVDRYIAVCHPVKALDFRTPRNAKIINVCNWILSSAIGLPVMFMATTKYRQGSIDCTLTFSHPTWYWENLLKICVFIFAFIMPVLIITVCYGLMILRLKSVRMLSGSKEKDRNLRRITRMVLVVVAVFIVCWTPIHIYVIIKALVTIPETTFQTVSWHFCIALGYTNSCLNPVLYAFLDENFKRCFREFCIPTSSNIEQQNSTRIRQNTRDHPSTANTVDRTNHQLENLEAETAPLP
Sequence of kappa opioid receptors (KOR) (P41145 whole entry): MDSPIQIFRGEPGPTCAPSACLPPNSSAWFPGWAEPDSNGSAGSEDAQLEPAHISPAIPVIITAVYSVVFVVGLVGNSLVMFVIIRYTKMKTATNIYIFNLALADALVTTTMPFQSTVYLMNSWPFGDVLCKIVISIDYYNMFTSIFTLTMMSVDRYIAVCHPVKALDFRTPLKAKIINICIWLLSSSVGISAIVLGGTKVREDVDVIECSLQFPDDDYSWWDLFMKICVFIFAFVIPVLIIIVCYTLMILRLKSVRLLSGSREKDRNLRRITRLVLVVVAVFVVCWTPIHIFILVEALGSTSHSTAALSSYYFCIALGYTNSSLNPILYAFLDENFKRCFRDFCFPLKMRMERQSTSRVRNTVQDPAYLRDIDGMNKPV

With CC(=O)N[C@@H]1CC[C@@]2(O)[C@H]3Cc4ccc(O)c5c4[C@@]2(CCN3CC2CC2)[C@@H]1O5 [6β-naltrexamide] the “affinity to MOR in vitro” value (MOR [1]) was “high affinity”, the “change of antagonist potency when given before morphine compared to the same time” value (MOR [2]) was “gains potency; also recorded: increasing potency as a neutral antagonist” and the “potency as a neutral antagonist” value (MOR [3]) was “low potency as a neutral antagonist”. For the same compound, the type of antagonism (MOR [3]) was “neutral antagonism”, the peripheral selectivity (MOR [4]) was “peripheral selectivity” and the peripheral selectivity (MOR [4]; listed as 6β-Natrexamide) was “strong peripherally selective activity”.
Compound Oc1ccc2c3c1O[C@H]1[C@H](O)CC[C@@]4(O)[C@@H](C2)N(CC2CC2)CC[C@]314 [6BN, 6β-naltrexol] has a bioavailability [5] of about 30%, a bioavailability [6] of about 30% and a receptor occupancy at 0.02 mg/kg ([7]; Cavia porcellus, sc, after an s.c. dose of 0.02 mg/kg, estimated, read-out: occupancy of MOR sites by bound 6BN) of about 10%. The half-life ([7]; guinea pig, blood, sc, 1 mg/kg s.c., guinea pigs, read-out: initial blood t1/2 (converted)) was about 60 min, the concentration at 24 h ([7]; guinea pig, brain, sc, 24 h after a 1 mg/kg s.c. dose, guinea pigs, read-out: brain level) was 0.5 ng/g and the blood-brain-barrier penetration ([7]; guinea pig, in vivo) was “slowly”. The “activity at KOR pretreated with KOR agonists” value [8] was “detectable inverse agonist activity”, the “pre-injection time of maximal delayed antagonist action” value (MOR [2]; high doses) was about 2 h and the “change of antagonist potency when given before morphine compared to the same time” value (MOR [2]) was “becomes more potent as an antagonist”. For the same compound, the “reversal/prevention of the opioid dependent state” value (MOR-μ*; listed as 6β-Naltrexol) was “extreme potency”, the “reversal/prevention of the opioid dependent state” value (MOR-μ*; listed as 6β-naltrexol) was “reverses the dependent state with high potency” and the water solubility (Water solubility) was “highly water soluble”. For the same compound, the “affinity for MOR” value (MOR [9]) was “nearly equally robust affinities”, the suppression of analgesia ([10]; 20 mg, highest dose tested, administered 30 min before morphine) was “did not suppress analgesia” and the “ID50 against morphine induced slowing of bowel movements” value ([10]; i.v., against 10 mg morphine, opioid naïve subjects) was about 3 mg. The “effect on MOR-μ* state” value [11] was “reverses MOR-μ* back to the inactive state”, the central withdrawal symptoms (peripheral MOR; 0.5-1.0 mg i.v.) was “no central withdrawal symptoms” and the tolerated i.v. dose (peripheral MOR; i.v., peripheral effects and bowel movements experienced) was 0.5 to 1.0 mg. The half-life in blood [12] was about 12 h.
For O=C1CC[C@@]2(O)[C@H]3Cc4ccc(O)c5c4[C@@]2(CCN3CC2CC2)[C@H]1O5 [naltrexone, reference compound], the “initial total oral dose above which withdrawal symptoms occur” value (MOR [13]) is given as at most 0.25 mg and the “effect on MOR-μ* state” value [11] is given as “lock MOR into the active MOR-μ* state while blocking MOR-μ* signaling”.
